According to patent US20120178815A1, “Compositions of (-)-E-10-OH-NT and Methods for Their Synthesis and Use” (Adolor Corporation, priority 2007, published 2012):
Where “and” joins values, the source holds several entries; their conditions need not be identical. Equal entries are not always repeated. Entries after “also recorded” stand apart in the source; their conditions may differ. Where two headings read alike, the source gives them in different places.

What was measured:
[1] = tested on: rotarod performance in rats; assay: Rat rotarod assay of sedation; format: in vivo; settings: for peak deficit in rotarod performance: 30 mg/kg, i.p., peak at 30 minutes; for ED50 for impairment of rotarod performance: IP
Method: Protocol. The rat rotarod assay is commonly used to assess sedation associated with chemical drugs. […] Once the rats were in position, the timers were set to zero and the rotarod switched to accelerating mode. The rotarod accelerated from 4 to 40 rpm over a five-minute interval. The timers automatically turned off when the rats fell from the rotating drum, recording a latency to fall in seconds. […] The performance score was recorded in seconds for each interval. The baseline rotarod performance score was the latency to fall off the rotarod on the third training session. Baselines must have been greater than or equal to 60 seconds duration for the rat to be included in the experiment.

[2] = target: T1, α1a adrenergic receptor (rat salivary gland membranes) (Rattus norvegicus, UniProt P43140); assay: α1a adrenergic receptor binding, [3H]prazocine
T1 construct: tested using membranes prepared from rat salivary gland; from tissue; host or cells: rat salivary gland membranes
T1 sequence (P43140 1-466): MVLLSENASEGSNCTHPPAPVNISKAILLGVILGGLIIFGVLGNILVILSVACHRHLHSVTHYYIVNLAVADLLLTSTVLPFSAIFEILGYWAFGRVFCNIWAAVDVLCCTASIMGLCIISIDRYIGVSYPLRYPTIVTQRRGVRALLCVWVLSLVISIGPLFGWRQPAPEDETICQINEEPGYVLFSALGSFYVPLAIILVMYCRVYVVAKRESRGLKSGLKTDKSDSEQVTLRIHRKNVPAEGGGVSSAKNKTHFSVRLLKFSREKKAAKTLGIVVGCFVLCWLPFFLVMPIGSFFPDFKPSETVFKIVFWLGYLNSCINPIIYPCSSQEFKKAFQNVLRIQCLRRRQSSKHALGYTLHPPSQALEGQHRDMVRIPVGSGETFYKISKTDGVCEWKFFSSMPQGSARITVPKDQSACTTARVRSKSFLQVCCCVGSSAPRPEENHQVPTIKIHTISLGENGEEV
Method: The affinities of AT, NT, (+)-E-10-OH-NT and (−)-E-OH-NT for the α1a, α1b, α2a, α2b, and α2c adrenergic receptors was tested. Affinity for the α1a adrenergic receptor was tested using membranes prepared from rat salivary gland. [^3H]Prazocine (0.06 nM) was incubated in the presence of various concentrations of test compounds with the membranes for 1 hour at 22° C. Nonspecific binding was determined in the presence of 10 μM phentolamine. Bound radioactivity was determined by scintillation spectroscopy.

α1b adrenergic receptor = target: T2, α1b adrenergic receptor (Homo sapiens, UniProt P35368); assay: α1b adrenergic receptor binding, [3H]prazocine
T2 construct: expressed in transfected cells; host or cells: CHO cells (membranes)
T2 sequence (P35368 1-520): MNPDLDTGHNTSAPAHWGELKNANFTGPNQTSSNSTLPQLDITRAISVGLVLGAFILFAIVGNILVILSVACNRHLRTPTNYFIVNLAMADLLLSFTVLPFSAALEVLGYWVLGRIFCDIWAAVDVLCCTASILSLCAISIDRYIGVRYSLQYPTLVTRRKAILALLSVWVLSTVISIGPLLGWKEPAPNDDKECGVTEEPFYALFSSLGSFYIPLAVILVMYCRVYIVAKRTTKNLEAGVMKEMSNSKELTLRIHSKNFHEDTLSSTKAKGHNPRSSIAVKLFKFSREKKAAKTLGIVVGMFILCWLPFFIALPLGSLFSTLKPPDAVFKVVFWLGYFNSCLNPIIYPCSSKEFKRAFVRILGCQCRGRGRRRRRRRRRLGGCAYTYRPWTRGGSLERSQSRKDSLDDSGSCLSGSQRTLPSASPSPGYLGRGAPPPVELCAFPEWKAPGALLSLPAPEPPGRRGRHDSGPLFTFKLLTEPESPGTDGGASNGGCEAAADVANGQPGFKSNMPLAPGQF
Method: Affinity for the α1b adrenergic receptor was tested using membranes prepared from Chinese hamster ovary (CHO) cells heterologously expressing the cloned human receptor that were incubated with [^3H]prazocine (0.15 nM) in the presence of various concentrations of test compounds for 1 hour at 22° C. Nonspecific binding was determined in the presence of 10 μM phentolamine. Bound radioactivity was determined by scintillation spectroscopy.

α2c adrenergic receptor = target: T3, α2c adrenergic receptor (Homo sapiens, UniProt P18825); assay: α2c adrenergic receptor binding, [3H]RX821002; settings: for inhibition at 10 µM: read-out: α2c adrenergic receptor, % inhib. at 10 μM
T3 construct: expressed in transfected cells; host or cells: CHO cells
T3 sequence (P18825 1-462): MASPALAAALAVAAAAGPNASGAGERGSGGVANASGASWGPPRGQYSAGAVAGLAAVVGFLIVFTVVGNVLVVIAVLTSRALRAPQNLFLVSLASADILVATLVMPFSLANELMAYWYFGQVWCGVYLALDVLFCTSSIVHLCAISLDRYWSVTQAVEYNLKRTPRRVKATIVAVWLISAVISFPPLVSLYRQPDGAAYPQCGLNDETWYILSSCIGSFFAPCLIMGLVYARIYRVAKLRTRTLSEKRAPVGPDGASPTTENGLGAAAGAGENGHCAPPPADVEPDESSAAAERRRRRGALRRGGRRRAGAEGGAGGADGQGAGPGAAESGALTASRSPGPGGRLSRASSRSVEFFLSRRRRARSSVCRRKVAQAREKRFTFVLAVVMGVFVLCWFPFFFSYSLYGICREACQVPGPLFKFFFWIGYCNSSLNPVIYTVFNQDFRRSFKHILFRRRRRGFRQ
Method: Nonspecific binding was determined in the presence of 100 μM (−)-epinephrine. Bound radioactivity was determined by scintillation spectroscopy.

CYP2C19 = target: T4, CYP2C19 (Homo sapiens, UniProt P33261); assay: CYP2C19 inhibition, DBF substrate; format: in vitro ADME; settings: average of six replicate experiments; for inhibition at 10 µM: human, microsomes containing human recombinant CYP2C19, probe dibenzylfluorescein (DBF), 10 μM test compound, read-out: Inhibition of CYPD2C19, % inhib. at 10 μM; for IC50: 95% confidence limits in parentheses, read-out: Inhibition of CYPD2C19, IC50
T4 construct: purchased BD Biosciences (San Jose, Calif.)
T4 sequence (P33261 whole entry): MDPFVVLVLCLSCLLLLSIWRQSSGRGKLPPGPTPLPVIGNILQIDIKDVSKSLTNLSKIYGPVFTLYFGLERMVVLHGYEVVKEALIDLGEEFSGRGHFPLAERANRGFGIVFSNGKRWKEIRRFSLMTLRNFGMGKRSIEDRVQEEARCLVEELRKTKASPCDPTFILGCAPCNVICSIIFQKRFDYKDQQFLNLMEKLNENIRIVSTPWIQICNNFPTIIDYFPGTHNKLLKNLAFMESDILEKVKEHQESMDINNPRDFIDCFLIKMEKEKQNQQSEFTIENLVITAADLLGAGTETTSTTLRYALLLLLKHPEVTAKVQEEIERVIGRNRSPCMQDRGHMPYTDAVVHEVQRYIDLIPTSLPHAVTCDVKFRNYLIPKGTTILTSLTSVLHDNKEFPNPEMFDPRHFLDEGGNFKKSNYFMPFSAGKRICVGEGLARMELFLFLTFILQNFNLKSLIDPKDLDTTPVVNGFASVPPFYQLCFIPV
Method: CYP2C19 activity was measured using dibezylflourescein (DBF) as substrate. The source of enzyme was microsomes containing human recombinant CYP2C19 obtained from BD Biosciences (San Jose, Calif.). Conversion of DBF to fluorescein was measured using a PerkinElmer Fusion with a 485 nm excitation filter and a 535 nm emission filter.

hERG = hERG (Homo sapiens, UniProt Q12809); assay: hERG channel inhibition; format: biochemical; settings: cloned hERG channel α subunit (expression host not stated), 10 μM test compound, read-out: percent inhibition of hERG channels
Sequence of hERG (Q12809 whole entry): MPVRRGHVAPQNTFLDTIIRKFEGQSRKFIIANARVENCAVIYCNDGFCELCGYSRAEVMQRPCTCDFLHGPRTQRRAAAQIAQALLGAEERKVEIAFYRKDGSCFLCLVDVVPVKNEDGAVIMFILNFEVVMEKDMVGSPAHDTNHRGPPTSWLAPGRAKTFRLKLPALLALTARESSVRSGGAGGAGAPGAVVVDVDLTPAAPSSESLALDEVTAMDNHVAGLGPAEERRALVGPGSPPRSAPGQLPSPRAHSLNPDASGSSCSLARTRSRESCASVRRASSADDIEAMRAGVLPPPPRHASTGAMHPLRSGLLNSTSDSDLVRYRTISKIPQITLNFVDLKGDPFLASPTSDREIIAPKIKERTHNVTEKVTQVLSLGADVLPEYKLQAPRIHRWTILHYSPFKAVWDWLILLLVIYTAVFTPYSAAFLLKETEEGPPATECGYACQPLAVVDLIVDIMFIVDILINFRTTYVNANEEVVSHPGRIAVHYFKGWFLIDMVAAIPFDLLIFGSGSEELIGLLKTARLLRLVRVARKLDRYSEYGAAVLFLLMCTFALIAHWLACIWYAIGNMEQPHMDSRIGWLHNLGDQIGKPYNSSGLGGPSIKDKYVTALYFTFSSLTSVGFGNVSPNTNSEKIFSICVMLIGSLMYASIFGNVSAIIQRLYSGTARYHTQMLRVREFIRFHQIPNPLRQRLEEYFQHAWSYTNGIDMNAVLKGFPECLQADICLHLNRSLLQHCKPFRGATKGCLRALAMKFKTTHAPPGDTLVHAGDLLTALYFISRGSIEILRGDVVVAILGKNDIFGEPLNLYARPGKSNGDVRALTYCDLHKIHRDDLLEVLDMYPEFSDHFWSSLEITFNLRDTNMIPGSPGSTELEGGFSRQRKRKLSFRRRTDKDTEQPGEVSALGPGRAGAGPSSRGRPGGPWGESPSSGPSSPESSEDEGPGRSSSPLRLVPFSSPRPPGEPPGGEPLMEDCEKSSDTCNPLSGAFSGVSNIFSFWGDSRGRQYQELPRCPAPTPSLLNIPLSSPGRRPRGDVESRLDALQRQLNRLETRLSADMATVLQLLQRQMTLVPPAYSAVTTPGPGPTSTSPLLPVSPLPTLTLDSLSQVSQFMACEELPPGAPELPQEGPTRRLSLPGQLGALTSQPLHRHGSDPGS

[3] = read-out: Affinity at α1a adrenergic receptor, Ki
[4] = read-out: Affinity at α1b adrenergic receptor, Ki

SMILES	impairment of rotarod performance ([1]; 30 mg/kg IP, rats (Example 17)) [%]	peak deficit in rotarod performance ([1]; rats)	ED50 for impairment of rotarod performance ([1]; rats) [mg/kg IP]	Ki [2, 3] [nM]	Ki (α1b adrenergic receptor; [4]) [nM]	inhibition at 10 µM (α2c adrenergic receptor) [%]	inhibition at 10 µM (CYP2C19) [%]	inhibition at 10 µM (hERG) [%]	maximal impairment of rotarod performance ([1]; 100 mg/kg IP, rats) [%]	Ki (α2c adrenergic receptor; read-out: Affinity at α2c adrenergic receptor, Ki) [nM]	IC50 (CYP2C19) [nM]	Ki [2] [nM]	Ki (α1b adrenergic receptor) [nM]
CNCC/C=C1\c2ccccc2C[C@@H](O)c2ccccc21 (stereo in doubt) [(−)-E-10-OH-NT]	5	no impairment in rotarod performance; also recorded: no significant impairment in performance; also recorded: no impairment of performance	120	3000	2600	30	24	6					
CN(C)CCC=C1c2ccccc2CCc2ccccc21 [AT, amitriptyline, reference compound]		51±20%	27	21	5.9				96	13	3500		
CNCCC=C1c2ccccc2CCc2ccccc21 [NT, nortriptyline, reference compound]		60±14% and 60±40%						55.1			1500	60	21
CNCC/C=C1\c2ccccc2C[C@H](O)c2ccccc21 (stereo in doubt) [(+)-E-10-OH-NT]				700	690	35	20	8.8					
